Changes are numbered by the printed parent chain. Positions of bridges follow the written chain, without caps; N, C: chain ends. Non-standard residues stand in square brackets, D forms with d. Residues, ends and D or L forms follow the SMILES beside them. *: point of attachment. 5FAM = O=C1OC2(c3ccc(O)cc3Oc3cc(O)ccc32)c2ccc(C(=O)*)cc21; 6FAM = O=C1OC2(c3ccc(O)cc3Oc3cc(O)ccc32)c2cc(C(=O)*)ccc21; S5 = C=CCCC[C@](C)(N)C(=O)O
Columns and labels:
HeLa cells [1] = experiment: Confocal microscopy of fixed HeLa cells (peptide localisation, endogenous TACC3 and CHC on mitotic spindle); type: cell-based
Description: HeLa cells grown on glass coverslips in complete growth medium and treated with 2.5, 5 and 10 μM FAM-peptides for 5 h. Cells were washed with PBS and fixed with PTEMF (20 mM PIPES, pH 6.8, 10 mM EGTA, 1 mM MgCl2, 0.2% Triton X-100 and 4% paraformaldehyde) for 10 min and permeabilized at room temperature in 0.5% Triton-X100 in PBS for 10 min. Cells were blocked in 3% BSA in PBS for 1 h and incubated overnight with primary antibodies diluted in 3% BSA/PBS buffer followed by 1 h incubation with secondary antibodies. Primary antibodies were as follows: mouse anti-CHC (X22; GTX22731; 1:250), rabbit anti-TACC3 (ab134154, Abcam; 1:500). Secondary antibodies were anti-mouse IgG Atto 594 (1:250, 76085, Merck) and anti-rabbit IgG Atto 647N antibody (1:250, 40839, Merck). Coverslips were mounted with ProLong Gold antifade reagent with DAPI (Invitrogen). Peptides were imaged using their 6-FAM fluorescent tag with a 488 nm argon laser. Imaging was performed on a Zeiss LSM880 upright confocal microscope using a 40x/1.4 NA oil objective. Z-stacks comprising of 9–13 × 1 μm sections were acquired. Images were captured using identical settings. The region of interest (~0.6 μm^2) was quantified in three different locations over the spindle, cytoplasm and in the non-cell region of background. Images were analysed using Fiji (v.2.9.0).

[2] = target: T1, CHC^ankle (clathrin heavy chain aa 358–574) (Homo sapiens, UniProt Q00610); experiment: Fluorescence polarisation direct binding assay, CHC ankle WT
T1 construct: we used the minimal ankle region of CHC (CHC^ankle, aa 358–574); GST (TEV-cleavable); made in house
T1 sequence (Q00610 358-574): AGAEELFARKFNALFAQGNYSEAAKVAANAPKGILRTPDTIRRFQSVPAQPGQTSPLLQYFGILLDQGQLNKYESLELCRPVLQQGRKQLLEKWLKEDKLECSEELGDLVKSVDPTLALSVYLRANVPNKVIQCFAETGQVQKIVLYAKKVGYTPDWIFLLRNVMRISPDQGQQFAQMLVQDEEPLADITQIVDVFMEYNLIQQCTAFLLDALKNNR
Description: (§1) Binding affinity of CHC and TACC3 peptides was calculated based on fluorescence polarization assays performed as reported previously, using linear and stapled FAM-TACC3 peptides corresponding to aa 549–570 of human TACC3 protein. Linear peptides were purchased from PPR (Fareham, UK); Alta Bioscience (Redditch, UK); Biomatik Corporation (Ontario, Canada). Stock solutions of peptides were 10 mM in DMSO. Binding assays were performed in triplicate in the binding buffer 20 mM HEPES pH 7.5, 150 mM NaCl, 5 mM DTT, 0.05% Tween-20. Data analysis was performed using a one-site specific binding model in Prism (GraphPad software, v10.1.0).

[3] = target: T2, biotinylated Avi-tagged ankle region of clathrin (aa 358–574) (Homo sapiens, UniProt Q00610); experiment: SPR binding kinetics; conditions: Biacore 1K+, average ± SD of duplicates; for kon: CHC aa 358–574 on SA chip, 60 s injection, read-out: ka (SPR)
T2 construct: The biotinylated Avi-tagged ankle region of clathrin (aa 358–574) was immobilised; made in house
T2 sequence (Q00610 358-574 limits assumed): T1 sequence (Q00610 358-574)
Description: The SPR assays were performed using a Biacore 1K+ instrument (Cytiva Life Sciences). The biotinylated Avi-tagged ankle region of clathrin (aa 358–574) was immobilised on the surface of a Streptavidin SA chip (Cytiva Life Sciences) to the density of 150 RU. The increasing concentrations of peptide analytes were diluted in the running buffer (20 mM HEPES pH 7.5, 150 mM NaCl, 5 mM DTT, 0.05% Tween-20) and injected at a flow rate of 30 μL/min). […] Each concentration was injected at 30 μL/min for 60 s. […] The Biacore evaluation software was used to calculate equilibrium KD values as well as ka and kd constants using 1:1 steady-state affinity model implemented into the BIAevaluation 3.0 software.

HeLa cells [4] = conditions: live HeLa cells, SiR-tubulin, 5 μM peptide, 4 h pre-incubation, imaged 10 h every 5 min; 246–297 mitotic events over 3 imaging sessions
Description: HeLa, MDA-MB-468 and MDA-MB-231 cells were plated in a 35 mm imaging dish (Ibidi) in complete growth medium. Prior to imaging, the DMEM or RPMI growth medium was replaced with Optimem medium (Gibco) supplemented with 10% FBS. Added to the medium was SiR-tubulin (Spirochrome) at 30 nM concentration, SPY555-DNA at 1:18000 dilution; both live-cell imaging probes were used at lower than recommended concentrations to avoid possible effects on mitosis. […] The Lattice Lightsheet 7 microscope was fitted with a 10x/0.4NA water immersion illumination lens, a 48x/1.0NA detection lens and a PCO.edge 4.2 sCMOS camera. Each field of view of approximately 500 μm × 297 μm × 33 μm was imaged at 0.2 μm lightsheet interval with the 640 nm channel (15 ms exposure, 15% laser power) and 561 nm channel (15 ms exposure, 10% laser power) over a 10 h period with scans taken every 5 min. To create movies and frame sequences the cell were imaged every 2.5 min for 5 h. Results were processed using Zeiss LLS software and Fiji (v.2.9.0).

K507A-CHC^ankle = target: T3, K507A-CHC^ankle (Homo sapiens, UniProt Q00610, K507A); experiment: Fluorescence polarisation direct binding assay, K507A-CHC ankle; conditions: direct binding FP, FAM labelled peptides; CHC with K507A substitution; mean of three experiments ± SD; read-out: KD, stapled and control peptides, CHC K507A
T3 construct: we used the minimal ankle region of CHC (CHC^ankle, aa 358–574); GST (TEV-cleavable); made in house
T3 sequence (Q00610 358-574 K507A): T1 sequence (Q00610 358-574) with K150A
Description: CHC constructs for binding studies were produced during previous work by cloning the respective CHC coding sequence of Q00610 (CLH1_HUMAN) aa 1–574 and 358–574, respectively) into a modified pGEX vector containing a TEV-cleavable GST tag[26]. Point mutations K506A and K507A were introduced by site-directed mutagenesis. GB1-TACC3 is the small protein GB1[47] fused to a short, disordered peptide sequence from human TACC3 (Q9Y6A5, aa 545–573). This hybrid sequence was cloned into a pETM6T1 vector which contains a TEV protease-cleavable N-terminal His-NusA tag.
as §1

fold increase in binding affinity for CHC compared to WT / parental TACC3 sequence ([2]; compared to the WT (parental) TACC3 peptide) | kon [3] [M⁻¹ s⁻¹] | Kd ([2]; direct binding FP, FAM labelled peptides, CHC WT (385–574), mean of three experiments ± SD, read-out: KD, stapled and control peptides, CHC WT) [µM] | Kd ([3]; CHC aa 358–574 on SA chip 150 RU, 20 mM HEPES pH 7.5, 150 mM NaCl, 5 mM DTT, 0.05% Tween-20, 30 μL/min) [µM] | Kd (K507A-CHC^ankle) [µM] | Structure (SMILES) | colocalisation with endogenous TACC3 on the mitotic spindle (HeLa cells [1]; fixed mitotic HeLa cells, FAM-labelled peptides, confocal microscopy) | reduction of endogenous TACC3 levels in the mitotic spindle (HeLa cells [1]; metaphase HeLa cells, peptide 2.5, 5 and 10 μM, 5 h, compared to the negative control SP TACC3 peptide) | median duration of mitosis from NEBD to anaphase onset (HeLa cells [4]) [min]
over a hundred-fold higher affinity | 1.8e+06 | – | – | – | CC(C)C[C@H](NC(=O)[C@H](C)NC(=O)[C@H](CO)NC(=O)[C@H](CCC(=O)O)NC(=O)[C@H](CCCCN)NC(=O)c1ccc2c(c1)C(=O)OC21c2ccc(O)cc2Oc2cc(O)ccc21)C(=O)N[C@@H](CCCNC(=N)N)C(=O)N[C@@H](CCCCN)C(=O)N[C@@]1(C)CCCC=CCCC[C@@](C)(C(=O)N[C@@H](CCC(=O)O)C(=O)N[C@@H](Cc2ccccc2)C(=O)N[C@@H](CC(=O)O)C(=O)N2CCC[C@H]2C(=O)N[C@@H](CC(C)C)C(=O)N[C@@H](Cc2ccccc2)C(=O)N[C@@H](CCCNC(=N)N)C(=O)N[C@@H](CC(=O)O)C(=O)N[C@@H](CO)C(N)=O)NC(=O)[C@H](CC(C)C)NC(=O)[C@H](CC(C)C)NC(=O)[C@H](CCC(=O)O)NC1=O [Opt SP TACC3] (5FAM-KESALRK[S5]ELL[S5]EFDPLFRDS-NH2; staple 8-12) | colocalised with endogenous TACC3 on the mitotic spindle | ~ 20% | –
– | – | – | – | – | CC(C)C[C@H](NC(=O)[C@H](C)NC(=O)[C@@H]1CCCN1C(=O)[C@H](CC(=O)O)NC(=O)[C@H](C)NC(=O)[C@H](CCC(=O)O)NC(=O)[C@]1(C)CCCC=CCCC[C@](C)(NC(=O)[C@H](CCCCN)NC(=O)[C@H](CCCNC(=N)N)NC(=O)[C@H](CC(C)C)NC(=O)[C@H](C)NC(=O)[C@H](CO)NC(=O)[C@H](CCC(=O)O)NC(=O)[C@H](CCCCN)NC(=O)c2ccc3c(c2)C2(OC3=O)c3ccc(O)cc3Oc3cc(O)ccc32)C(=O)N[C@@H](CCC(=O)O)C(=O)N[C@@H](CC(C)C)C(=O)N[C@@H](CC(C)C)C(=O)N1)C(=O)N[C@@H](CCCNC(=N)N)C(=O)N[C@@H](CC(=O)O)C(=O)N[C@@H](CO)C(N)=O [Neg. control SP TACC3] (6FAM-KESALRK[S5]ELL[S5]EADPALRDS-NH2; staple 8-12) | – | – | 55
– | 140000 | 34 ± 5 | 2.8 ± 0.2 | 3.7 ± 1 | CC(C)C[C@H](NC(=O)[C@H](C)NC(=O)[C@H](CO)NC(=O)[C@H](CCC(=O)O)NC(=O)[C@H](CCCCN)NC(=O)[C@H](Cc1ccccc1)NC(=O)c1ccc2c(c1)C(=O)OC21c2ccc(O)cc2Oc2cc(O)ccc21)C(=O)N[C@@H](CCCNC(=N)N)C(=O)N[C@@H](CCCCN)C(=O)N[C@@]1(C)CCCC=CCCC[C@@](C)(C(=O)N[C@@H](CCCCN)C(=O)N[C@@H](Cc2ccccc2)C(=O)N[C@@H](CC(=O)O)C(=O)N2CCC[C@H]2C(=O)N[C@@H](CC(C)C)C(=O)N[C@@H](CC(C)C)C(=O)N[C@@H](CCCNC(=N)N)C(=O)N[C@@H](CC(=O)O)C(=O)N[C@@H](CO)C(N)=O)NC(=O)[C@H](Cc2ccc(O)cc2)NC(=O)[C@H](CC(C)C)NC(=O)[C@H](CCC(=O)O)NC1=O [SP4E] (5FAM-FKESALRK[S5]ELY[S5]KFDPLLRDS-NH2; staple 9-13) | – | – | –
